From patent US12129221B2, “Difluoro phenyl amide RIP1 inhibitor” (SIRONAX LTD, priority 2018, dated 2024)
Where two headings read alike, the source gives them in different places.

How the values were obtained:
necrosis = assay: Necrosis inhibitory activity (cell necrosis / cell viability assay); format: cell-based; conditions: for EC50: read-out: EC50
Excerpt: Necrosis Inhibitory Activity
Representative IC50 of hRIP1 Kinase Assay Correlated with Our IC50 of Cell Necrosis Assay: […]

[1] = Prodrug enhanced metabolic stability: liver microsome (L); format: in vitro ADME; set-up: key: +, Extrapolated
Excerpt: (§1) Prodrug Enhanced Metabolic Stability: Liver Microsome (L), Hepatocyte (H) and PK

[2] = Prodrug enhanced metabolic stability: hepatocyte (H); format: in vitro ADME; set-up: key: +, Extrapolated
Excerpt: as §1

[3] = Prodrug enhanced metabolic stability: PK; format: in vivo; set-up: key: +, Extrapolated
Excerpt: as §1

ferroptosis = assay: Ferroptosis inhibitor activity; format: cell-based; conditions: 1 uM threshold activity extrapolated
Excerpt: Ferroptosis Inhibitor Activity 1 Um Threshold Activity Extrapolated

[4] = Necrosis Inhibitory Activity, given as range

| SMILES | EC50 (necrosis; Active Pro-drugs) | L [1] | H [2] | PK [3] | EC50(nM) (necrosis; Active Pro-drugs) | EC50 (necrosis; [4]) | EC50 (ferroptosis) |
| --- | --- | --- | --- | --- | --- | --- | --- |
| CCC(C)(C)C(=O)N(Cc1ccccc1)OC(=O)Oc1ccccc1 [Compound 58, N-benzyl-2,2-dimethyl-N-((phenoxycarbonyl)oxy)butanamide] | 45.1 nM | + | + | + |  |  |  |
| [2H]CC([2H])C(C)(C)C(=O)N(Cc1cc(F)cc(F)c1)OC(=O)c1cccnc1 (centres unmarked) [Compound 62, N-(3,5-difluorobenzyl)-2,2-dimethyl-N-(nicotinoyloxy)butanamide-3,4-d2] | 45.3 nM | + | + | + |  |  |  |
| CCOC(=O)ON(Cc1cc(F)cc(F)c1)C(=O)C(C)(C)CC [Compound 87, N-(3,5-difluorobenzyl)-N-((ethoxycarbonyl)oxy)-2,2-dimethylbutanamide] | 67.8 nM | + | + | + |  |  |  |
| CCC(C)(C)C(=O)N(Cc1ccccc1)OP(=O)(OC)OC [Compound 70, dimethyl ((N-benzyl-2,2-dimethylbutanamido)oxy)phosphonate] | 1700 nM | + | + | + |  |  |  |
| CCC(C)(C)C(=O)N(Cc1ccccc1)OC(=O)CCC(=O)ON(Cc1ccccc1)C(=O)C(C)(C)CC [Compound 53, N,N′-(succinylbis(oxy))bis(N-benzyl-2,2-dimethylbutanamide)] | 85.5 nM | + | + | + |  |  |  |
| [2H]CC([2H])C(C)(C)C(=O)N(Cc1cc(F)cc(F)c1)OC(=O)OCCOC (centres unmarked) [Compound 65, N-(3,5-difluorobenzyl)-N-(((2-methoxyethoxy)carbonyl)oxy)-2,2-dimethylbutanamide-3,4-d2] | 37.2 nM | + | + | + |  |  |  |
| CCC(C)(C)C(=O)N(Cc1ccccc1)OC(=O)c1cccnc1 [Compound 60, N-benzyl-2,2-dimethyl-N-(nicotinoyloxy)butanamide] | 83.5 nM | + | + | + |  |  |  |
| CCC(C)(C)C(=O)N(Cc1ccccc1)OC(=O)[C@@H](NC(=O)OC(C)(C)C)C(C)C [Compound 79, tert-butyl (S)-(1-((N-benzyl-2,2-dimethylbutanamido)oxy)-3-methyl-1-oxobutan-2-yl)carbamate] | 1430 nM | + | + | + |  |  |  |
| CCC(C)(C)C(=O)N(Cc1ccccc1)OC(=O)OCCOCCOCCOC(=O)ON(Cc1ccccc1)C(=O)C(C)(C)CC [Compound 55, N,N′-(2,5,8,11-tetraoxadodecanedioylbis(oxy))bis(N-benzyl-2,2-dimethylbutanamide)] | 99.3 nM | + | + | + |  |  |  |
| CCC(C)(C)C(=O)N(Cc1ccccc1)OC(=O)c1ccccc1 [Compound 51, N-(benzoyloxy)-N-benzyl-2,2-dimethylbutanamide] | 284 nM | + | + | + |  |  |  |
| CCC(C)(C)C(=O)N(Cc1ccccc1)OC(=O)N1CCCCC1 [Compound 56, N-benzyl-2,2-dimethyl-N-((piperidine-1-carbonyl)oxy)butanamide] |  | + | + | + | weak |  |  |
| CCC1(C(=O)N(O)Cc2ccc(F)cc2)CC1 [Compound 39, 1-ethyl-N-(4-fluorobenzyl)-N-hydroxycyclopropane-1-carboxamide] |  |  |  |  |  | 1000 to 100000 nM | 1000 to 10000 nM |
| CCC(C)(C)C(=O)N(O)Cc1c(F)c(F)c(F)c(F)c1F [Compound 11, N-hydroxy-2,2-dimethyl-N-((perfluorophenyl)methyl)butanamide] |  |  |  |  |  | 1000 to 10000 nM | 1000 to 10000 nM |
| [2H]C([2H])C([2H])([2H])C(C)(C)C(=O)N(O)Cc1ccc(F)cc1 [Compound 29, N-(4-fluorobenzyl)-N-hydroxy-2,2-dimethylbutanamide-3,3,4,4-d4] |  |  |  |  |  | 1 to 1000 nM | 1000 to 10000 nM |
| CC1(C(C)(C)C(=O)N(O)Cc2ccccc2)CC1 [Compound 32, N-benzyl-N-hydroxy-2-methyl-2-(1-methylcyclopropyl) propanamide] |  |  |  |  |  | 1 to 1000 nM | 1000 to 10000 nM |
| CCC1(C(=O)N(O)Cc2ccc(Cl)cc2)CC1 [Compound 40, N-(4-chlorobenzyl)-1-ethyl-N-hydroxycyclopropane-1-carboxamide] |  |  |  |  |  | 1000 to 10000 nM | 1000 to 10000 nM |
| CCC(C)(C)C(=O)N(O)Cc1cc(F)ccc1F [Compound 14, N-(2,5-difluorobenzyl)-N-hydroxy-2,2-dimethylbutanamide] |  |  |  |  |  | 1 to 1000 nM | 1000 to 10000 nM |
| CCC(C)(C)C(=O)N(O)Cc1ccccc1Cl [Compound 3, N-(2-chlorobenzyl)-N-hydroxy-2,2-dimethylbutanamide] |  |  |  |  |  | 1 to 1000 nM | 1000 to 10000 nM |
| CCC(C)(C)C(=O)N(O)Cc1ccccc1F [Compound 1, N-(2-fluorobenzyl)-N-hydroxy-2,2-dimethylbutanamide] |  |  |  |  |  | 1 to 1000 nM | 1000 to 10000 nM |
| CCC(C)(C)C(=O)N(O)Cc1cc(F)cc(C#N)c1 [Compound 12, N-(3-cyano-5-fluorobenzyl)-N-hydroxy-2,2-dimethylbutanamide] |  |  |  |  |  | 1 to 1000 nM | 1000 to 10000 nM |
| CCC(C)(C)C(=O)N(O)Cc1cc(C)c(C)s1 [Compound 21, N-((4,5-dimethylthiophen-2-yl)methyl)-N-hydroxy-2,2-dimethylbutanamide] |  |  |  |  |  | 1 to 1000 nM | 1000 to 10000 nM |
| CCC(C)(C)C(=O)N(O)Cc1c(F)cc(F)cc1F [Compound 10, N-hydroxy-2,2-dimethyl-N-(2,4,6-trifluorobenzyl)butanamide] |  |  |  |  |  | 1000 to 10000 nM | 1000 to 10000 nM |
| O=C(C1CCCCC1)N(O)Cc1ccccc1 [Compound 37, N-benzyl-N-hydroxycyclohexanecarboxamide] |  |  |  |  |  | 1000 to 10000 nM | 1000 to 10000 nM |
| CC(C)(C(=O)N(O)Cc1cc(F)c(F)c(F)c1)C(F)(F)F [Compound 46, 3,3,3-trifluoro-N-hydroxy-2,2-dimethyl-N-(3,4,5-trifluorobenzyl)propenamide] |  |  |  |  |  | 1000 to 10000 nM | 1000 to 10000 nM |
| CCC(C)(C)C(=O)N(O)Cc1cccc(Br)c1 [Compound 5, N-(3-bromobenzyl)-N-hydroxy-2,2-dimethylbutanamide] |  |  |  |  |  | 1 to 1000 nM | 1000 to 10000 nM |
| CCC(C)(C)C(=O)N(O)Cc1cccc(Cl)c1 [Compound 4, N-(3-chlorobenzyl)-N-hydroxy-2,2-dimethylbutanamide] |  |  |  |  |  | 1 to 1000 nM | 1000 to 10000 nM |
| CC(C)(C(=O)N(O)Cc1ccc(Br)cc1)C(F)(F)F [Compound 42, N-(4-bromobenzyl)-3,3,3-trifluoro-N-hydroxy-2,2-dimethylpropanamide] |  |  |  |  |  | 1 to 1000 nM | 1000 to 10000 nM |
| [2H]CC([2H])C(C)(C)C(=O)N(O)C([2H])([2H])c1c([2H])c([2H])c([2H])c([2H])c1[2H] (centres unmarked) [Compound 31, N-hydroxy-2,2-dimethyl-N-((phenyl-d5)methyl-d2)butanamide-3,4-d2] |  |  |  |  |  | 1 to 1000 nM | 1000 to 10000 nM |
| O=C(C1CCN(c2ncc(F)cn2)CC1)N(O)Cc1ccc(F)cc1 [Compound 85, N-(4-fluorobenzyl)-1-(5-fluoropyrimidin-2-yl)-N-hydroxypiperidine-4-carboxamide] |  |  |  |  |  | 1000 to 10000 nM | 1000 to 10000 nM |
